Source: article PMC7356589, “Hybrid Gold(I) NHC-Artemether Complexes to Target Falciparum Malaria Parasites” (Molecules, 2020)
Where two headings read alike, the source gives them in different places.

Columns and labels:
[1] = test system: P. falciparum strain F32-TEM (F32-Tanzania); test: In vitro antiplasmodial activity (SYBR Green fluorescence and [3H] hypoxanthine assays); format: cell-based, Plasmodium falciparum; conditions: strain F32-Tanzania (F32-TEM), mean of at least 4 experiments, SYBR Green and radioactivity assays, read-out: Antiplasmodial Activity on P. falciparum IC50 ± SEM
Description: In vitro antiplasmodial activities of the synthesized hybrid molecules were evaluated against the P. falciparum strain F32-TEM (corresponding to the parental strain F32-Tanzania). Each molecule was tested at least in three independent experiments (except Aubis(5-Bn), tested twice) by a SYBR Green Fluorescence assay but also at least once with the standard chemosensitivity assay recommended by the WHO and based on the incorporation of [^3H] hypoxanthine.
For the SYBR Green Fluorescence assay, ring stage parasites were treated with the drugs for 48 h. Then, the pellets were washed twice with PBS and frozen at −20 °C. Thawed plates were incubated for 2 h at room temperature with the SYBR Green (Thermo-Fisher, Illkirch, France) lysis buffer (20 mm Tris base pH 7.5, 5 mm EDTA, 0.008% w/v saponin, 0.08% w/v Triton X-100). The plates were then read using a fluorescence plate reader (FLx800, BioTek, Illkirch, France) at an excitation wavelength of 485 nm and 535 nm for the emission wavelength. The IC50 values (concentration inhibiting 50% of the parasite’s growth) were determined using GraphPad Prism software 7 (GraphPad Software, San Diego, CA, USA).
For [^3H] hypoxanthine assay, ring stage parasites were incubated with the drug dilutions for 24 h, then, [^3H] hypoxanthine (50 μL/0.25 μCi; Perkin-Elmer, Courtaboeuf, France) was added for another 24 h period. After that, plates were frozen at −20 °C. The next step is to thaw the plates and to collect the nucleic acids. Tritium incorporation was then determined thanks to a β-counter (Perkin-Elmer, Courtaboeuf, France).
The antiplasmodial activities reported in Table 1 correspond thus to the mean of IC50 values from at least 4 independent experiments acquired by the two methods, SYBR Green and radioactivity.

[2] = Cytotoxicity on Vero cells (MTT); format: cell-based, monkey; conditions: monkey; Vero cells, 48 h, MTT; read-out: Cytotoxicity on Vero Cells IC50 ± SEM
Description: (§1) The cells were cultured in MEM medium (Dutscher, Brumath, France) supplemented with 10% fetal bovine serum (Dutscher), 0.7 mM glutamine and 100 μg/mL gentamicin. The cells were seeded at 10^4 cells per well in a 96-well plates and incubated during 24 h. Then, cells were incubated for additional 48 h with the drugs. […] Subsequently, DMSO was added to the wells containing the cells and MTT to dissolve the formed crystals. The plates were then read to determine the absorbance at wavelength of 540 nm (µQuant, BioTek, Illkirch, France). Cell proliferation was calculated from at least three independent experiments using GraphPad Prism software 7 (GraphPad Software, San Diego, CA, USA). The cytotoxic/antiplasmodial activity ratio corresponds to the selectivity index.

Vero cell line = test: Cytotoxicity on Vero cells (MTT); format: cell-based, monkey; conditions: for Selectivity Index Vero Cells/P. falciparum: cytotoxic/antiplasmodial activity ratio; for IC50: Vero cells, 48 h, MTT, read-out: Cytotoxicity on Vero Cells IC50 ± SEM
Description: as §1

[3] = test system: P. falciparum F32-ART (artemisinin-resistant); test: Recrudescence assay after 48 h drug exposure, F32-ART; format: cell-based, Plasmodium falciparum; conditions: 48 h exposure
Description: (§2) The Plasmodium falciparum F32-ART and F32-TEM parasite lines, resistant and sensitive to artemisinins respectively, were cultured in vitro in type O human erythrocytes (Etablissement Français du sang (EFS), Toulouse, France), diluted to 2% hematocrit, in RPMI-1640 medium (GIBCO, Illkirch, France) and supplemented with 5% Human Serum AB (EFS, Toulouse, France) at 37 °C and 5% CO2 [33]. Every other day and before each experiment, P. falciparum F32-ART and F32-TEM parasites were synchronized at ring stage using 5% D-sorbitol solution [34].
(§3) P. falciparum strains F32-ART and F32-TEM, synchronized at ring stage parasites at 3% parasitemia and 2% hematocrit have undergone a 48 h-treatment with the drugs to be tested. The parasites were then washed with RPMI-1640 medium and re-cultivated in drug-free culture conditions with 10% human serum. The parasitemia was then monitored daily to determine the time required for each parasite culture to recover the initial parasitemia of 3%. If no parasites were seen up to 30 days, the parasites were considered as “not recrudescent” [9, 15]. The drug doses were chosen in order to discriminate the phenotype response between the artemisinin-resistant and the -sensitive strains. A range from 1-fold to >100-fold the antiplasmodial IC50 value previously found has been tested to determine the most appropriate drug dose to use in this recrudescence assay.

[4] = test system: P. falciparum F32-TEM (artemisinin-sensitive); test: Recrudescence assay after 48 h drug exposure, F32-TEM; format: cell-based, Plasmodium falciparum; conditions: 48 h exposure
Description: as §2, §3

[5] = test system: P. falciparum F32-ART and F32-TEM strains; test: Recrudescence assay, comparison of F32-TEM and F32-ART (cross-resistance with artemisinin); format: cell-based, Plasmodium falciparum; conditions: for Mean ± SEM Difference of Recrudescence Days between F32-TEM and F32-ART: 48 h exposure; for Cross-resistance with artemisinin (result in words): recrudescence assay, F32-ART vs F32-TEM
Description: Three hybrid molecules with the best selectivity indexes in each series, i.e., Aubis(3-Me) (14), Aubis(4-Me) (19) and Aubis(5-Me) (23), were evaluated in vitro for their efficacy in a context of resistance to artemisinins. For that, the comparison of the recovery capacity between the strain F32-ART, artemisinin-resistant, and its twin artemisinin-sensitive F32-TEM was evaluated after 48 h-treatment with the molecule to be tested via the recrudescence assay. When ring-stage resistant parasites are exposed to artemisinin, most of them die, but a small sub-set of parasites is able to escape the treatment by a cell cycle arrest, called quiescence mechanism. This phenomenon is characterized by a halt of DNA synthesis, which explains the very low IC50 values obtained with all artemisinins even for the artemisinin-resistant strain F32-ART [9, 15, 30]. Therefore, the standard in vitro chemosensitivity assay, based on the measurement of DNA levels to estimate the inhibition of the parasite proliferation, is irrelevant to study the resistance to artemisinins and evaluate possible cross-resistances.
as §3

[6] = Plasmodium falciparum, F32, 48 h

Which results are given for `Cc1cc(C)c(-[n+]2ccn(CCCCCO[C@H]3O[C@@H]4O[C@@]5(C)CCC6[C@H](C)CCC([C@H]3C)[C@]64OO5)c2)c(C)c1` (stereo partly drawn) [L5-Mes, 3′-Mesityl-1′-[10β-(22-pentoxy)dihydroartemisinin]1H-imidazol-3-ium bromide]?
IC50 [1, 6]: < 100 nM; IC50 ([1]; 48 h): 98 ± 24 nM; IC50 at 48 h [2]: 25000 nM; Selectivity Index Vero Cells/P. falciparum (Vero cell line): 255

For `C[C@@H]1CCC2[C@@H](C)[C@@H](OCCCCCn3cc[n+](C)[c]3[Au-][c]3n(CCCCCO[C@H]4O[C@@H]5O[C@@]6(C)CCC7[C@H](C)CCC([C@H]4C)[C@]75OO6)cc[n+]3C)O[C@@H]3O[C@@]4(C)CCC1[C@@]23OO4.[Cl-]` (stereo partly drawn) [Aubis(5-Me)], which IC50 ([1]; 48 h) is on record?
The IC50 was 9 ± 0.9 nM.

What about the IC50 (Vero cell line) of the same compound?
The IC50 was 1000 nM.

And the “Median (range) Recrudescence Days, F32-ART” value (shortened to “Median … F32-ART”) ([3]; dose 100 nM)?
Its value is 6 days.

What about the “Median … F32-ART” value ([3]; dose 500 nM) of the same compound?
The value was 9.5 (8–11) days.

And the “Median … F32-ART” value ([3]; dose 1 µM)?
The value was 9 days.

What about the “Median (range) Recrudescence Days, F32-TEM” value (“Median … F32-TEM” for short) ([4]; dose 100 nM) of the same compound?
Its value is 15 days.

What about the “Median … F32-TEM” value ([4]; dose 500 nM) of the same compound?
The value was >25.5 (21–>30) days.

And the “Median … F32-TEM” value ([4]; dose 1 µM)?
The value was 30 days.

And the “Mean ± SEM Difference of Recrudescence Days between F32-TEM and F32-ART” value (“Mean ± SEM Difference” below) ([5]; dose 100 nM)?
The value was 9 days.

What about the “Mean ± SEM Difference” value ([5]; dose 500 nM) of the same compound?
The value was over 16 days.

And the “Mean ± SEM Difference” value ([5]; dose 1 µM)?
The value was 21 days.

And the “Cross-resistance with artemisinin (result in words)” value [5]?
Its value is “cross-resistance”.

For `C[C@@H]1CCC2[C@@H](C)[C@@H](OCCCCCn3cc[n+](Cc4ccccc4)c3)O[C@@H]3O[C@@]4(C)CCC1[C@@]23OO4` (stereo partly drawn) [L5-Bn, 3′-Benzyl-1′-[10β-(22-pentoxy)dihydroartemisinin]1H-imidazol-3-ium bromide], which IC50 [1, 6] is on record?
Its IC50 is under 100 nM.

And the IC50 ([1]; 48 h)?
Its IC50 is 98 ± 26 nM.

And the IC50 at 48 h [2]?
The IC50 at 48 h was 1000 nM.

What about the “Selectivity Index Vero Cells/P. falciparum” value (Vero cell line) of the same compound?
Its value is 10.

What does the source list for `C[C@@H]1CCC2[C@@H](C)[C@@H](OCCCCn3cc[n+](C)[c]3[Au-][c]3n(CCCCO[C@H]4O[C@@H]5O[C@@]6(C)CCC7[C@H](C)CCC([C@H]4C)[C@]75OO6)cc[n+]3C)O[C@@H]3O[C@@]4(C)CCC1[C@@]23OO4.[Cl-]` (stereo partly drawn) [Aubis(4-Me)]?
IC50 ([1]; 48 h): 13 ± 3 nM; IC50 (Vero cell line): 800 nM; Median (range) Recrudescence Days, F32-ART ([3]; dose 100 nM): 5 days; Median (range) Recrudescence Days, F32-ART ([3]; dose 500 nM): 12.5 (11–14) days; Median (range) Recrudescence Days, F32-ART ([3]; dose 1 µM): 16 days; Median (range) Recrudescence Days, F32-TEM ([4]; dose 100 nM): 6 days; Median (range) Recrudescence Days, F32-TEM ([4]; dose 500 nM): >30 days; Median (range) Recrudescence Days, F32-TEM ([4]; dose 1 µM): 30 days; Mean ± SEM Difference of Recrudescence Days between F32-TEM and F32-ART ([5]; dose 100 nM): 1 days; Mean ± SEM Difference of Recrudescence Days between F32-TEM and F32-ART ([5]; dose 500 nM): >17.5 ± 1.5 days; Mean ± SEM Difference of Recrudescence Days between F32-TEM and F32-ART ([5]; dose 1 µM): 14 days; Cross-resistance with artemisinin (result in words) [5]: cross-resistance

Which IC50 [1, 6] does the source give for `C[C@@H]1CC[C@H]2[C@@H](C)C(=O)O[C@@H]3O[C@@]4(C)CC[C@@H]1[C@]32OO4` [Artemisinin, reference compound] here?
The IC50 was 18 ± 2 nM.

What about the IC50 at 48 h [2] of the same compound?
The IC50 at 48 h was 130000 nM.

And the “Selectivity Index Vero Cells/P. falciparum” value (Vero cell line)?
Its value is 7 000.

And the “Median … F32-ART” value ([3]; dose 18 µM)?
The value was 9.5 (6–17) days.

What about the “Median … F32-TEM” value ([4]; dose 18 µM) of the same compound?
The value was 18.5 (17–>30) days.

And the “Mean ± SEM Difference” value ([5]; dose 18 µM)?
Its value is 9.7 ± 0.3 days.

And the “Mean ± SEM Difference” value ([5]; dose 18 µM, listed as artemisinin)?
Its value is 9.7 days.

Which IC50 [1, 6] does the source give for `C[C@@H]1CCC2[C@@H](C)[C@@H](OCCCBr)O[C@@H]3O[C@@]4(C)CCC1[C@@]23OO4` (stereo partly drawn) [DHA-C3, 10β-(20-Bromopropoxy)dihydroartemisinin] here?
The IC50 was 8.5 ± 3 nM.

What about the IC50 at 48 h [2] of the same compound?
Its IC50 at 48 h is 2500 nM.

And the “Selectivity Index Vero Cells/P. falciparum” value (Vero cell line)?
The value was 294.

For `C[C@@H]1CCC2[C@@H](C)[C@@H](OCCCn3cc[n+](C)[c]3[Au-][c]3n(CCCO[C@H]4O[C@@H]5O[C@@]6(C)CCC7[C@H](C)CCC([C@H]4C)[C@]75OO6)cc[n+]3C)O[C@@H]3O[C@@]4(C)CCC1[C@@]23OO4.O=[N+]([O-])[O-]` (stereo partly drawn) [Aubis(3-Me)], which IC50 ([1]; 48 h) is on record?
The IC50 was 35 ± 8 nM.

And the IC50 (Vero cell line)?
Its IC50 is 5000 nM.

What about the “Median … F32-ART” value ([3]; dose 200 nM) of the same compound?
The value was 7 (7–13) days.

And the “Median … F32-ART” value ([3]; dose 500 nM)?
Its value is 8 days.

And the “Median … F32-TEM” value ([4]; dose 200 nM)?
The value was 14 (11–16) days.

What about the “Median … F32-TEM” value ([4]; dose 500 nM) of the same compound?
Its value is 24 days.

And the “Mean ± SEM Difference” value ([5]; dose 200 nM)?
The value was 4.6 ± 1.2 days.

What about the “Mean ± SEM Difference” value ([5]; dose 500 nM) of the same compound?
Its value is 16 days.

And the “Cross-resistance with artemisinin (result in words)” value [5]?
The value was “cross-resistance”.
